Laboratory results: patent US9874565B2, “Oncogene associated with human cancers and methods of use thereof” (Dana-Farber Cancer Institute, Inc., priority 2013, dated 2018)

Tested on: hMECs transformed with MECP2
Experiment: growth inhibition of hMECs transformed with MECP2 compared with isogenic cells transformed by activated RAS
Type: cell-based, human
Excerpt: Because MECP2 only binds to methylated CpG sequences and hydroxymethylcytosine, and because data have shown that oncogenic activation of MECP2 depends upon its DNA-binding region, […] it is likely that the oncogenic activity of MECP2 is mediated by binding of the protein to methylated CpG sequences of hydroxymethylated cytosine. For this reason, it was investigated whether DNA methylation inhibitors hinder cell growth in a MECP2-dependent manner. DNA methylation inhibitors prevent the formation of both methylated CpG sequences and hydroxymethylated cytosine.
MECP2 is known to be present in a complex with Class I histone deacetylases. […] This led to investigation of whether MECP2-transformed cells were particularly vulnerable to HDAC inhibitors. […] Furthermore, it was shown that combined treatment with the DNA methylation inhibitor 5-azacytdine and the HDAC inhibitor Trichostatin A is synergistic in a hMEC experimental system.

Row | SMILES | susceptibility of MECP2-transformed cells relative to isogenic cells transformed by activated RAS (HDAC inhibitor, MECP2-transformed vs activated RAS-transformed isogenic cells) | sensitivity of hMECs transformed with MECP2 relative to isogenic cells transformed by activated RAS (DNA methylation inhibitors, MECP2-transformed vs activated RAS-transformed isogenic hMECs)
1 | CC(/C=C/C(=O)NO)=C\[C@@H](C)C(=O)c1ccc(N(C)C)cc1 [Trichostatin A] | an order of magnitude more susceptible | –
2 | Nc1ncn([C@@H]2O[C@H](CO)[C@@H](O)[C@H]2O)c(=O)n1 [5-azacytidine] | – | an order of magnitude more sensitive
